PubChem BioAssay (NCI)
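Method: 48-hour compound exposure of cells in 96-well plates, five concentrations, linear interpolation of endpoints. At the TGI there is no net growth.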

What was measured:
Assay in all cases: inhibition of tumour cell growth, NCI panel, 48 h
[1] = test system: SW-620 colon
[2] = test system: MDA-MB-435
[3] = test system: KM12 colon
[4] = test system: MDA-MB-231 breast
[5] = test system: SK-MEL-28 melanoma
[6] = test system: SK-MEL-2 melanoma
[7] = test system: UO-31 renal
[8] = test system: BT-549 breast
[9] = test system: NCI/ADR-RES ovarian
[10] = test system: T-47D breast
[11] = test system: K-562 leukemia
[12] = test system: NCI-H226 lung
[13] = test system: HOP-92 NSCLC
[14] = test system: SF-295 CNS
[15] = test system: SF-539 CNS
[16] = test system: MOLT-4 leukemia
[17] = test system: MALME-3M melanoma
[18] = test system: NCI-H23 lung
[19] = test system: HT29 colon
[20] = test system: EKVX NSCLC
[21] = test system: TK-10 renal
[22] = test system: HL-60(TB) leukemia
[23] = test system: NCI-H522 lung
[24] = test system: U251 CNS
[25] = test system: SK-OV-3 ovarian
[26] = test system: OVCAR-8 ovarian
[27] = test system: COLO 205 colon
[28] = test system: HCT-15 colon
[29] = test system: MCF7 breast
[30] = test system: SR leukemia
[31] = test system: A549 NSCLC
[32] = test system: PC-3 prostate
[33] = test system: SNB-75 CNS
[34] = test system: OVCAR-5 ovarian
[35] = test system: HOP-62 NSCLC
[36] = test system: 786-0 renal
[37] = test system: UACC-257 melanoma
[38] = test system: CAKI-1 renal
[39] = test system: OVCAR-3 ovarian
[40] = test system: RPMI-8226 leukemia
[41] = test system: DU-145 prostate
[42] = test system: SK-MEL-5 melanoma
[43] = test system: ACHN renal
[44] = test system: M14 melanoma
[45] = test system: SN12C renal
[46] = test system: HS 578T breast
[47] = test system: RXF 393 renal
[48] = test system: HCT-116 colon
[49] = test system: OVCAR-4 ovarian
[50] = test system: SF-268 CNS
[51] = test system: NCI-H460 lung
[52] = test system: CCRF-CEM leukemia
[53] = test system: UACC-62 melanoma
[54] = test system: SNB-19 CNS
[55] = test system: IGROV1 ovarian
[56] = test system: LOX IMVI melanoma

COc1ccc2c(C)cc(N/N=C/c3ccc(OC)c4ccccc34)nc2c1
TGI [1]: 22.2 µM | TGI [2]: 24.1 µM | TGI [3]: 29.6 µM | TGI [4]: 17.4 µM | TGI [5]: 31.6 µM | TGI [6]: 37.2 µM | TGI [7]: 25.6 µM | TGI [8]: 46.2 µM | TGI [9]: 32.7 µM | TGI [10]: 24.1 µM | TGI [11]: 32.3 µM | TGI [12]: 29.6 µM | TGI [13]: 25.4 µM | TGI [14]: 32 µM | TGI [15]: 30.6 µM | TGI [16]: 52.9 µM | TGI [17]: 36.3 µM | TGI [18]: 32.8 µM | TGI [19]: 32.7 µM | TGI [20]: 35.1 µM | TGI [21]: 31.8 µM | TGI [22]: 49.3 µM | TGI [23]: 26.7 µM | TGI [24]: 13.2 µM | TGI [25]: 33.8 µM | TGI [26]: 39.6 µM | TGI [27]: 42 µM | TGI [28]: 23.4 µM | TGI [29]: 44.6 µM | TGI [30]: 22.3 µM | TGI [31]: 34.8 µM | TGI [32]: 34.1 µM | TGI [33]: 42.2 µM | TGI [34]: 29.1 µM | TGI [35]: 34.4 µM | TGI [36]: 26.4 µM | TGI [37]: 36.9 µM | TGI [38]: 26.9 µM | TGI [39]: 9.02 µM | TGI [40]: 8.64 µM | TGI [41]: 16.4 µM | TGI [42]: 30.3 µM | TGI [43]: 15.8 µM | TGI [44]: 31.9 µM | TGI [45]: 5.52 µM | TGI [46]: 32.8 µM | TGI [47]: 39.8 µM | TGI [48]: 18.1 µM | TGI [49]: 45.1 µM | TGI [50]: 32.6 µM | TGI [51]: 41.1 µM | TGI [52]: 7.47 µM | TGI [53]: 28.3 µM | TGI [54]: 41.9 µM | TGI [55]: 29.3 µM | TGI [56]: 12.3 µM
